From ChEMBL document CHEMBL5550180, “Enhancing anti-cancer capacity: Novel class I/II HDAC inhibitors modulate EMT, cell cycle, and apoptosis pathways” (Bioorg Med Chem, 2024)
pIC50: −log10 of the molar value. The source made the active and inactive calls.

What was measured:
A549 [1] = assay: cells; assay type: functional, cell-based; conditions: Homo sapiens, A549, 48 h
Description: Anticancer activity against human A549 cells assessed as inhibition of cell growth measured for 48 hrs by MTT assay

HT-29 [2] = assay: cells; assay type: functional, cell-based; conditions: Homo sapiens, HT-29, 48 h
Description: Anticancer activity against human HT-29 cells assessed as inhibition of cell growth measured for 48 hrs by MTT assay

NCI-H1299 = assay: Anticancer activity against human NCI-H1299 cells assessed as reduction in cell viability at 10 to 40 uM incubated for 48 hrs by MTT assay; assay type: functional, cell-based; conditions: dose 10-40 µM
A549 [3] = assay: Anticancer activity against human A549 cells assessed as suppression of cell viability at 10 uM incubated for 48 hrs by MTT assay; assay type: functional, cell-based
HT-29 [4] = assay: Anticancer activity against human HT-29 cells assessed as suppression of cell viability at 10 uM incubated for 48 hrs by MTT assay; assay type: functional, cell-based
A549 [5] = assay: Anticancer activity against human A549 cells assessed as viable cells by measuring green fluorescence intensity measured for 48 hrs by Calcein AM staining based fluorescent microscopic analysis; assay type: functional, cell-based; conditions: dose 1-20 µM
HT-29 [6] = assay: Anticancer activity against human HT-29 cells assessed as viable cells by measuring green fluorescence intensity measured for 48 hrs by Calcein AM staining based fluorescent microscopic analysis; assay type: functional, cell-based; conditions: dose 1-20 µM
A549 [7] = assay: Inhibition of colony formation in human A549 cells at 250 to 500 nM measured for 10 days by crystal violet staining based analysis; assay type: functional, cell-based; conditions: dose 250-500 nM, time 10.0 day
HT-29 [8] = assay: Inhibition of colony formation in human HT-29 cells at 125 to 250 nM measured for 10 days by crystal violet staining based analysis; assay type: functional, cell-based; conditions: dose 125-250 nM, time 10.0 day
[9] = target: T1, Histone deacetylase (Homo sapiens) (UniProt Q13547+O15379+Q9UBN7+Q92769+Q9UQL6+Q8WUI4+Q9BY41+Q96DB2+P56524+Q9UKV0+Q969S8); assay: Inhibition of HDAC in human A549 cells incubated for 48 hrs by Western blot analysis; assay type: cell-based; conditions: dose 0.1-10 µM
[10] = target: T1, Histone deacetylase (Homo sapiens); assay: Inhibition of HDAC in human HT-29 cells incubated for 48 hrs by Western blot analysis; assay type: cell-based; conditions: dose 0.1-10 µM
[11] = target: T1, Histone deacetylase (Homo sapiens); assay: Inhibition of HDAC in human HT-29 cells assessed as increase in histone acetylation level at 2.5 to 5 uM incubated for 48 hrs by Western blot analysis; assay type: cell-based; conditions: dose 2.5-5 µM
[12] = target: T1, Histone deacetylase (Homo sapiens); assay: Inhibition of HDAC in human HT-29 cells assessed as increase in acetyl alpha-tubulin level at 2.5 to 5 uM incubated for 48 hrs by Western blot analysis; assay type: cell-based; conditions: dose 2.5-5 µM
HT-29 [13] = assay: Inhibition of cell migration in human HT-29 cells at 1.25 uM measured at 48 hrs by wound healing assay (reference value: 73.2%); assay type: functional
HT-29 [14] = assay: Inhibition of cell migration in human HT-29 cells assessed as upregulation of E-cadherin level at 2.5 to 5 uM incubated for 48 hrs by Western blot analysis; assay type: functional, cell-based; conditions: dose 2.5-5 µM
HT-29 [15] = assay: Inhibition of cell migration in human HT-29 cells assessed as downregulation of vimentin level at 2.5 to 5 uM incubated for 48 hrs by Western blot analysis; assay type: functional, cell-based; conditions: dose 2.5-5 µM
HT-29 [16] = assay: Inhibition of cell migration in human HT-29 cells assessed as downregulation of slug level at 2.5 to 5 uM incubated for 48 hrs by Western blot analysis; assay type: functional, cell-based; conditions: dose 2.5-5 µM
A549 [17] = assay: Induction of cell cycle arrest in human A549 cells assessed as accumulation at sub G1 at 5 to 10 uM incubated for 24 to 48 hrs by PI-staining based flow cytometric analysis; assay type: functional; conditions: dose 5-10 µM, time 24-48 hrs
A549 [18] = assay: Induction of apoptosis in human A549 cells assessed as increase in PARP level at 5 to 10 uM incubated for 48 hrs by Western blot analysis; assay type: functional, cell-based; conditions: dose 5-10 µM
A549 [19] = assay: Induction of apoptosis in human A549 cells assessed as increase in caspase 3 level at 5 to 10 uM incubated for 48 hrs by Western blot analysis; assay type: functional, cell-based; conditions: dose 5-10 µM
A549 [20] = assay: Induction of apoptosis in human A549 cells assessed as upregulation of p53 expression at 5 to 10 uM incubated for 48 hrs by Western blot analysis; assay type: functional, cell-based; conditions: dose 5-10 µM
A549 [21] = assay: Induction of cell cycle arrest in human A549 cells assessed as effect on p21 level at 5 to 10 uM incubated for 48 hrs by Western blot analysis; assay type: functional, cell-based; conditions: dose 5-10 µM
A549 [22] = assay: Induction of cell cycle arrest in human A549 cells assessed as effect on cyclin B1 level at 5 to 10 uM incubated for 48 hrs by Western blot analysis; assay type: functional, cell-based; conditions: dose 5-10 µM
A549 [23] = assay: Anticancer activity against human A549 cells cultured as 3D spheroids assessed as suppression of cell growth at 10 uM incubated for 48 hrs by celltiter-glo luminescent assay; assay type: functional, cell-based
HT-29 [24] = assay: Anticancer activity against human HT-29 cells cultured as 3D spheroids assessed as suppression of cell growth at 10 uM incubated for 48 hrs by celltiter-glo luminescent assay; assay type: functional, cell-based
[25] = Toxicity in zebrafish embryo assessed as hatching rate at 1 to 5 uM measured after 72 hrs post fertilization by microscopic analysis; set-up: species or system Danio rerio; conditions: in vivo, dose 1-5 µM
[26] = Toxicity in zebrafish embryo assessed as survival rate at 1 to 5 uM measured after 72 hrs post fertilization; set-up: species or system Danio rerio; conditions: in vivo, dose 1-5 µM
[27] = Toxicity in zebrafish embryo assessed as effect on body length at 1 to 5 uM measured after 96 hrs post fertilization by microscopic analysis; set-up: species or system Danio rerio; conditions: in vivo, dose 1-5 µM
[28] = Toxicity in zebrafish embryo assessed as formation of scoliosis at 1 to 5 uM measured after 96 hrs post fertilization by microscopic analysis; set-up: species or system Danio rerio; conditions: in vivo, dose 1-5 µM
[29] = Toxicity in zebrafish embryo assessed as yolk sac edema at 1 to 5 uM measured after 96 hrs post fertilization by microscopic analysis; set-up: species or system Danio rerio; conditions: in vivo, dose 1-5 µM
A549 [30] = assay: Inhibition of cell migration in human A549 cells at 2.5 uM measured at 24 hrs by wound healing assay (reference value: 68.4%); values are per cent of control; conditions: A549, 24 h
A549 [31] = assay: Inhibition of cell migration in human A549 cells at 2.5 uM measured at 48 hrs by wound healing assay (reference value: 42.3%); values are per cent of control; conditions: A549, 48 h
A549 [32] = assay: Inhibition of cell migration in human A549 cells at 2.5 uM measured immediately by wound healing assay (reference value: 100%); values are per cent of control
HT-29 [33] = assay: Inhibition of cell migration in human HT-29 cells at 1.25 uM measured at 24 hrs by wound healing assay (reference value: 85.7%); values are per cent of control; conditions: HT-29, 24 h
HT-29 [34] = assay: Inhibition of cell migration in human HT-29 cells at 1.25 uM measured immediately by wound healing assay (reference value: 100%); values are per cent of control

Nc1ccccc1NC(=O)c1ccc(Cc2cn(S(=O)(=O)c3ccccc3)c3ccccc23)cc1
5.31: pIC50 (A549 [1])
75.8%: wound area remaining at 2.5 µM (A549 [30])
Non-Toxic: Activity [27] | Activity [28] | Activity [29]
89.6%: wound area remaining at 1.25 µM (HT-29 [33])
~100%: survival at 72 h, up to 5 µM [26]
82.1%: inhibition at 1.25 µM (HT-29 [13])
100%: Activity [25] | wound area remaining at 2.5 µM (A549 [32]) | wound area remaining at 1.25 µM (HT-29 [34])
active: Activity (NCI-H1299) | Activity (A549 [3]) | Activity (HT-29 [4]) | Activity (A549 [5]) Dose-Dependent Effect | Activity (HT-29 [6]) Dose-Dependent Effect | inhibition (A549 [7]) | inhibition (HT-29 [8]) | inhibition [9] | inhibition [10] | inhibition [11] | inhibition [12] | inhibition (HT-29 [14]) | inhibition (HT-29 [15]) | inhibition (HT-29 [16]) | Activity (A549 [17]) | Activity (A549 [18]) | Activity (A549 [19]) | Activity (A549 [20]) | Activity (A549 [21]) | Activity (A549 [22]) | Activity (A549 [23]) | Activity (HT-29 [24])
53.6%: wound area remaining at 2.5 µM (A549 [31])
5.72: pIC50 (HT-29 [2])
